Values of other authors, collected in PMC7855261 (Cell chemical biology, 2020).

System: r(CUG)12-MBNL1 complex
Conditions: ref Parkesh et al., 2012; Rzuczek et al., 2015

Nc1ccc2nc(-c3ccc(-c4nc5ccc(N)cc5[nH]4)cc3)[nH]c2c1 [Compound 3, 2,2′-p-Phenylene-bis(5-aminobenzimidazole)]
Bind r(CUG)^exp and inhibit formation of the r(CUG)^exp-MBNL1 complex: inhibit formation of the r(CUG)^exp-MBNL1 complex
